According to publication PMC12702354, “Engineered an ultrasmall curcumin oral nanoformulation restores intestinal integrity and gut microbiota dysbiosis” (Materials Today Bio, 2025):

What was measured:
[1] = Dose determination: body weight and liver weight; assay type: in vivo, C57BL/6 mice; conditions: for Final body weight / Liver weight / Rel. liver weight: n = 12
Procedure: We first determined the doses of UsNFs and free-CUR in eight-week-old female C57BL/6 mice before systematically evaluating the retention of UsNFs in the GIT and PK of CUR. […] Consequently, 50 mg/kg was identified as the optimal dosage for subsequent in vivo therapeutic assessment of both UsNFs and free-CUR, achieving a balance between efficacy potential, safety, and physiological tolerance.

[2] = system: VAN-induced C57BL/6J mouse model; experiment: VAN-induced intestinal epithelial barrier dysfunction and gut inflammation model; conditions: 50 mg/kg oral daily, 10 days after VAN
Procedure: This was succeeded by a daily oral administration of 50 mg/kg UsNFs of CUR for another 10 days, whereas the control group (CON) received standard rodent feed and water (Fig. 5A).

[3] = system: Caco-2 cell monolayer; experiment: TEER of Caco-2 cell monolayer; assay type: cell-based, human; conditions: applied apically 120 min, then removed
Procedure: First, 5 × 10^4 Caco-2 cells/well, as a gastrointestinal epithelium model were cultured in transwell plates (Thermo Fisher, India) with a pore size of 0.4 μm. Once the TEER values attained 500 Ω cm^2, the cell monolayers were utilized for the subsequent experiments. Initially, mucin (10 mg/mL PBS) was introduced into the apical medium to mimic the occurrence of mucus, whereas PBS without mucin was utilized to represent the condition lacking mucus. Subsequently, IF (20 μL, 100 IU/mL) and 200 μL of CUR formulations (1 mg/mL) were introduced into the upper chambers. While incubating in a water bath at 37 °C, samples were taken from the lower chambers for analysis at various time intervals. A portion of the basolateral medium was taken out and examined using RP-HPLC to quantify the CUR content. The Papp of CUR was determined using the method outlined in a previous study. To analyze intracellular uptake, cells were gathered and underwent multiple freeze-thaw cycles prior to being lysed for 60 min. The concentration of CUR taken up by the cells was assessed using HPLC. Additionally, TEER measurements were recorded to evaluate the effect of CUR formulations on the monolayer's integrity. The baseline TEER readings for the Caco-2 cell layer were recorded. The apical media were then substituted with CUR formulations (200 μL). […] The Papp values for CUR were calculated.

[4] = system: gut microbiota; experiment: 16S rRNA gene sequencing of gut microbiota in VAN-induced mice; assay type: in vivo, C57BL/6 mice; conditions: heat map-cluster and qPCR analysis
Description: Faecal microbial genomic DNA was isolated and quantified as described elsewhere. Universal primers were employed to facilitate the amplification of the V3 and V4 domains of the 16S rRNA gene. The obtained amplicons were normalized, aligned to create the sequencing library, and sequenced on an Illumina MiSeq (San Diego, USA). The raw data of 16S rRNA gene sequences were filtered based on high error probability (>0.01) and analyzed by QIIME version (1.9.1). We generated OTUs at an identity threshold of 97 % using UPARSE (version 7.0.1001). NMDS plots were developed using PAST version 2.17 [44]. Heatmap profiles were constructed using R Studio software version 3.6.1. To examine the differentially abundant biomarkers between the different groups, LEfSe analysis was performed. Spearman correlational studies were performed to assess the correlations between VAN-induced inflammation-related parameters and gut bacteria and metabolites.

[5] = system: faecal metabolites of gut bacteria; experiment: Faecal metabolome analysis (GC-MS) in VAN-induced mice; assay type: in vivo, C57BL/6 mice; conditions: faeces, VAN vs treated group, n = 5
Procedure: The extract of faecal samples (40 mg/ml methanol) was prepared as described in the previous method. The obtained dry extract was derivatized with methoxyamine-HCl and BSTFA (Sigma-Aldrich, USA), followed by incubation for 1 h at 37 °C. Subsequently, the supernatant (10 μl) obtained after centrifugation at 10,000×g for 12 min was injected into an Agilent GC-MS. The injector, transfer line, and ion source were set at 280 °C, 150 °C and 230 °C, respectively. At the beginning, we set the oven temperature to 60 °C, and then increased at 60 °C/min for 2 min, followed by an increase at the rate of 10 °C/min until reaching 300 °C.

For COc1cc(/C=C/C(=O)CC(=O)/C=C/c2ccc(O)c(OC)c2)ccc1O [free-CUR, curcumin], which “Final body weight or relative liver weight compared to normal control” value ([1]; 25 mg/kg and 50 mg/kg) is on record?
The value was “no significant differences”.

What about the Final body weight ([1]; 25 mg/kg) of the same molecule?
The Final body weight was 22.02 ± 0.15 g.

And the Liver weight ([1]; 25 mg/kg)?
Its Liver weight is 1.06 ± 0.036 g.

And the Rel. liver weight ([1]; 25 mg/kg)?
The Rel. liver weight was 4.81 ± 0.11 Liver wt/100 g b.wt.

And the Final body weight ([1]; 50 mg/kg)?
The Final body weight was 21.6 ± 0.19 g.

And the Liver weight ([1]; 50 mg/kg)?
Its Liver weight is 1.05 ± 0.022 g.

What about the Rel. liver weight ([1]; 50 mg/kg) of the same molecule?
The Rel. liver weight was 4.86 ± 0.23 Liver wt/100 g b.wt.

And the Final body weight ([1]; 75 mg/kg)?
The Final body weight was 16.2 ± 0.21 g.

And the Liver weight ([1]; 75 mg/kg)?
The Liver weight was 1.19 ± 0.038 g.

And the Rel. liver weight ([1]; 75 mg/kg)?
The Rel. liver weight was 7.34 ± 0.16 Liver wt/100 g b.wt.

And the Colon length [2]?
The Colon length was “no significant decrease”.

What about the MDA levels [2] of the same molecule?
The MDA levels was “only partially diminished”.

What about the “TEER change of cell monolayer” value [3] of the same molecule?
The value was “kept the TEER steady”.

And the “Restoring effect on VAN-altered GM” value [4]?
Its value is “did not show any significant restoring effects”.

What about the “Fold change, 2,4,5-Trihydroxypentanoic acid” value [5] of the same molecule?
Its value is 0.778.

What about the “Fold change, 2-Hydroxyglutaric acid” value [5] of the same molecule?
The value was 3.491.

And the “Fold change, 4-Aminobutyric acid” value [5]?
The value was 0.998.

And the “Fold change, 4-Hydroxy-3-methoxybenzoic acid” value [5]?
Its value is 0.619.

And the “Fold change, 4-Hydroxyproline” value [5]?
The value was 0.924.

And the “Fold change, 5-Aminovaleric acid” value [5]?
Its value is 1.101.

And the “Fold change, 9,12,15-Octadecatrienoic acid” value [5]?
The value was 1.217.

What about the “Fold change, 9-(Z)-Hexadecenoic acid” value [5] of the same molecule?
Its value is 1.102.

And the “Fold change, Acetate” value [5]?
The value was 0.733.

What about the “Fold change, Adenine” value [5] of the same molecule?
Its value is 0.325.

What about the “Fold change, Alanine” value [5] of the same molecule?
The value was 0.743.

And the “Fold change, Arabitol” value [5]?
Its value is 0.432.

And the “Fold change, Aspartic acid” value [5]?
The value was 3.075.

What about the “Fold change, Azelaic acid” value [5] of the same molecule?
The value was 0.849.

And the “Fold change, Benzenepropanoic acid” value [5]?
The value was 0.368.

What about the “Fold change, Butyrate” value [5] of the same molecule?
Its value is 0.168.

And the “Fold change, Cholesta-8,24-dien-3-ol, 4-methyl-, (3β,4α)” value [5]?
Its value is 1.313.

And the “Fold change, D-fructose” value [5]?
Its value is 1.400.

And the “Fold change, D-glucose” value [5]?
Its value is 1.069.

And the “Fold change, Eicosanoic acid” value [5]?
The value was 0.404.

And the “Fold change, Erythronic acid” value [5]?
The value was 1.754.

And the “Fold change, Ethanolamine” value [5]?
Its value is 1.266.

What about the “Fold change, Fucose” value [5] of the same molecule?
Its value is 0.580.

And the “Fold change, Galacturonic acid” value [5]?
Its value is 1.024.

What about the “Fold change, Gentiobiose” value [5] of the same molecule?
Its value is 2.357.

And the “Fold change, Gluconic acid” value [5]?
Its value is 1.119.

What about the “Fold change, Glutaric acid” value [5] of the same molecule?
Its value is 0.708.

And the “Fold change, Glycerol” value [5]?
The value was 0.926.

And the “Fold change, Glycerol-3-phosphate” value [5]?
Its value is 2.032.

And the “Fold change, Glycolic acid” value [5]?
Its value is 2.144.

What about the “Fold change, Hexadecanoic acid” value [5] of the same molecule?
Its value is 1.155.

What about the “Fold change, Hexanoic acid” value [5] of the same molecule?
Its value is 1.359.

What about the “Fold change, Homoserine” value [5] of the same molecule?
Its value is 2.352.

What about the “Fold change, Hypoxanthine” value [5] of the same molecule?
The value was 0.916.

And the “Fold change, Isoleucine” value [5]?
Its value is 1.058.

What about the “Fold change, L-rhamnose” value [5] of the same molecule?
Its value is 0.191.

And the “Fold change, Lactic acid” value [5]?
The value was 0.573.

What about the “Fold change, Leucine” value [5] of the same molecule?
Its value is 0.704.

What about the “Fold change, Lysine” value [5] of the same molecule?
The value was 0.526.

And the “Fold change, Methionine” value [5]?
Its value is 1.121.

And the “Fold change, Nicotinic acid” value [5]?
The value was 0.616.

And the “Fold change, Octadecadienoic acid” value [5]?
The value was 1.285.

What about the “Fold change, Ornithine” value [5] of the same molecule?
The value was 0.453.

What about the “Fold change, Orotic acid” value [5] of the same molecule?
The value was 1.443.

And the “Fold change, Pantothenic acid” value [5]?
Its value is 0.519.

What about the “Fold change, Pentadecanoic acid” value [5] of the same molecule?
The value was 0.271.

And the “Fold change, Phenylalanine” value [5]?
Its value is 0.989.

And the “Fold change, Phosphoric acid” value [5]?
The value was 1.212.

And the “Fold change, Propionate” value [5]?
Its value is 1.530.

And the “Fold change, Ribitol” value [5]?
The value was 1.340.

What about the “Fold change, Serine” value [5] of the same molecule?
Its value is 0.538.

What about the “Fold change, Sorbitol” value [5] of the same molecule?
Its value is 1.816.

What about the “Fold change, Tetradecanoic acid” value [5] of the same molecule?
Its value is 0.349.

What about the “Fold change, Threitol” value [5] of the same molecule?
The value was 2.116.

What about the “Fold change, Threonic acid” value [5] of the same molecule?
The value was 1.362.

And the “Fold change, Threonine” value [5]?
Its value is 1.275.

What about the “Fold change, Thymine” value [5] of the same molecule?
Its value is 1.214.

What about the “Fold change, Tricosadiynoic acid” value [5] of the same molecule?
Its value is 0.767.

What about the “Fold change, Tryptophan” value [5] of the same molecule?
Its value is 1.117.

What about the “Fold change, Uracil” value [5] of the same molecule?
The value was 0.561.

What about the “Fold change, Uric acid” value [5] of the same molecule?
The value was 0.772.

What about the “Fold change, beta-Alanine” value [5] of the same molecule?
The value was 1.217.

What about the “Fold change, myo-Inositol” value [5] of the same molecule?
Its value is 2.179.

What about the “Fold change, myo-Inositol-1-phosphate” value [5] of the same molecule?
Its value is 0.584.
